Test results taken from patent US10196403B2, “Compounds and compositions and uses thereof” (Sunovion Pharmaceuticals Inc., priority 2016, dated 2019).

System: mice
Assay: Neuropharmacological Assay (SmartCube)
Assay type: in vivo
Settings: for minimal effective dose: Mus musculus, read-out: POTENCY (minimal effective dose, MED); for minimal effective dose / POTENCY (minimal effective dose, MED): MED = dose having 50% or more total activity in SmartCube; for AD: ADHD (SmartCube probability) / AG: analgesic (SmartCube probability) / AX: anxiolytic (SmartCube probability) / CE: cognitive enhancer (SmartCube probability) / DP: anti-depressant (SmartCube probability) / MS: mood stabilizer (SmartCube probability) / PS: anti-psychotic (SmartCube probability) / SD: sedative hypnotic (SmartCube probability) / UN: uncharacterized CNS activity (SmartCube probability): mice, i.p. 15 min before test, most efficacious dose(s) of 3 doses
From the text: Neuropharmacological Assay (SmartCube™)
Neurosci. 2011 Sep. 9; 5:103 (doi: 10.3389/fnins.2011.00103) (“Roberds”). As reported in Roberds, because psychiatric diseases generally result from disorders of cell-cell communication, circuitry, intact systems are useful in detecting improvement in disease-relevant endpoints. These endpoints are typically behavioral in nature, often requiring human observation and interpretation. To facilitate testing of multiple compounds for behavioral effects relevant to psychiatric disease, PsychoGenics, Inc. (Tarrytown, N.Y., “PGI”) developed SmartCube™, an automated system in which behaviors of compound-treated mice are captured by digital video and analyzed with computer algorithms. (D. Brunner et al., Drug Discov. Today 2002, 7:S107-S112). PGI Analytical Systems uses data from SmartCube™ to compare the behavioral signature of a test compound to a database of behavioral signatures obtained using a large set of diverse reference compounds. (The composition of the database as well as validation of the method is further described in Roberds). In this way, the neuropharmacological effects of a test compound can be predicted by similarity to major classes of compounds, such as antipsychotics, anxiolytics and antidepressants.
The SmartCube™ system produces an activity signature indicating the probability that the activity of the test compound at the administered dose matches a given class of neuropharmacological agents. (See, e.g., Roberds, FIGS. 2 and 3). The test compound is simultaneously compared against multiple classes of agents; thus, a separate probability is generated for each behavioral effect measured (e.g., anxiolytic activity, analgesic activity, etc.). In the table below, these probabilities are reported for each behavioral effect measured as follows:
where LOQ is the limit of quantification.
Provided compounds were dissolved in a mixture of Pharmasolve™ (N-methyl-2-pyrrolidone), polyethylene glycol and propylene glycol, and were injected i.p. 15 min. before the behavioral test. For each compound, injections were administered at 3 different doses. For each behavioral effect measured, results for the most efficacious dose(s) are presented. In the table below, DP: anti-depressant; AX: anxiolytic; SD: sedative hypnotic; PS: anti-psychotic; MS: mood stabilizer; AD: ADHD; CE: cognitive enhancer; AG: analgesic; UN: uncharacterized CNS activity.
The potency of many of the compounds in the table was also determined in the SmartCube™ system. Test compounds were routinely examined at dose levels of 0.3, 1, 3 10 and 30 mg per kg (mpk), although the dose range was increased or decreased if necessary to obtain a full dose response curve. A compound's minimal effective dose (MED) is a measure of the compounds potency. The MED was defined as the dose (in mpk) having 50% or more total activity in SmartCube.

SMILES	minimal effective dose [mg/kg]	AD: ADHD (SmartCube probability)	AG: analgesic (SmartCube probability)	AX: anxiolytic (SmartCube probability)	CE: cognitive enhancer (SmartCube probability)	DP: anti-depressant (SmartCube probability)	MS: mood stabilizer (SmartCube probability)	PS: anti-psychotic (SmartCube probability)	SD: sedative hypnotic (SmartCube probability)	UN: uncharacterized CNS activity (SmartCube probability)	POTENCY (minimal effective dose, MED)
CNC[C@H]1OCCc2ccc(F)cc21 [Example 13, (S)-1-(7-fluoroisochroman-1-yl)-N-methylmethanamine]	10 to 30	+ (LOQ≤ + <5%)	++ (5%≤ ++ <25%)	++ (5%≤ ++ <25%)	+ (LOQ≤ + <5%)	++ (5%≤ ++ <25%)	+ (LOQ≤ + <5%)	+ (LOQ≤ + <5%)	++ (5%≤ ++ <25%)	+++ (25%≤ +++ <50%)	–
NC[C@H]1OCCc2c(Cl)cccc21 [Example 66, (S)-(5-chloroisochroman-1-yl)methanamine]	–	+ (LOQ≤ + <5%)	+ (LOQ≤ + <5%)	++ (5%≤ ++ <25%)	+ (LOQ≤ + <5%)	++++ (50%≤ ++++)	+ (LOQ≤ + <5%)	+ (LOQ≤ + <5%)	+ (LOQ≤ + <5%)	+ (LOQ≤ + <5%)	A-B
CNC[C@@H]1OCCc2c(Cl)cccc21 [Example 33, (R)-1-(5-chloroisochroman-1-yl)-N-methylmethanamine]	< 3	+ (LOQ≤ + <5%)	++ (5%≤ ++ <25%)	++ (5%≤ ++ <25%)	++ (5%≤ ++ <25%)	++++ (50%≤ ++++)	+ (LOQ≤ + <5%)	+ (LOQ≤ + <5%)	++ (5%≤ ++ <25%)	+++ (25%≤ +++ <50%)	–
CNC[C@H]1OCc2cccc(F)c21 [Example 68, (S)-1-(7-fluoro-1,3-dihydroisobenzofuran-1-yl)-N-methylmethanamine]	3 to 10	+ (LOQ≤ + <5%)	++ (5%≤ ++ <25%)	++ (5%≤ ++ <25%)	++ (5%≤ ++ <25%)	++ (5%≤ ++ <25%)	+ (LOQ≤ + <5%)	++ (5%≤ ++ <25%)	+++ (25%≤ +++ <50%)	++ (5%≤ ++ <25%)	–
CNC[C@H]1OCCc2ccc3c(c21)OCC3 [Example 106, (S)-N-methyl-1-(2,3,6,9-tetrahydro-7H-furo[3,2-h]isochromen-9-yl)methanamine]	10 to 30	+ (LOQ≤ + <5%)	+ (LOQ≤ + <5%)	++ (5%≤ ++ <25%)	+++ (25%≤ +++ <50%)	++ (5%≤ ++ <25%)	+ (LOQ≤ + <5%)	++ (5%≤ ++ <25%)	++ (5%≤ ++ <25%)	+ (LOQ≤ + <5%)	–
CNC[C@H]1OCCc2cccc(Cl)c21 [Example 36, (S)-1-(8-chloroisochroman-1-yl)-N-methylmethanamine]	3 to 10	+ (LOQ≤ + <5%)	+ (LOQ≤ + <5%)	++ (5%≤ ++ <25%)	++ (5%≤ ++ <25%)	+ (LOQ≤ + <5%)	+ (LOQ≤ + <5%)	++ (5%≤ ++ <25%)	+ (LOQ≤ + <5%)	+++ (25%≤ +++ <50%)	–
CNC[C@H]1OCCc2c1ccc1c2OCO1 [Example 3, (S)-1-(8,9-dihydro-6H-[1,3]dioxolo[4,5-f]isochromen-6-yl)-N-methylmethanamine]	10 to 30	++ (5%≤ ++ <25%)	++ (5%≤ ++ <25%)	++ (5%≤ ++ <25%)	+ (LOQ≤ + <5%)	+++ (25%≤ +++ <50%)	+ (LOQ≤ + <5%)	+ (LOQ≤ + <5%)	+ (LOQ≤ + <5%)	+ (LOQ≤ + <5%)	–
CNC[C@@H]1OC[C@@H](C)c2ccccc21 [Example 20, N-methyl-1-((1R,4S)-4-methylisochroman-1-yl)methanamine]	< 3	+ (LOQ≤ + <5%)	+ (LOQ≤ + <5%)	++ (5%≤ ++ <25%)	++ (5%≤ ++ <25%)	++ (5%≤ ++ <25%)	+ (LOQ≤ + <5%)	++++ (50%≤ ++++)	++ (5%≤ ++ <25%)	++++ (50%≤ ++++)	–
CNC[C@@H]1OCCc2c(O)cc3c(c21)OCO3 (single isomer, unassigned) [Example 103]	> 30	+ (LOQ≤ + <5%)	+ (LOQ≤ + <5%)	+ (LOQ≤ + <5%)	+ (LOQ≤ + <5%)	+ (LOQ≤ + <5%)	+ (LOQ≤ + <5%)	+ (LOQ≤ + <5%)	+ (LOQ≤ + <5%)	+ (LOQ≤ + <5%)	–
CNC[C@@H]1OCCc2ccc3c(c21)OCCO3 [Example 10, (R)-N-methyl-1-(2,3,7,10-tetrahydro-8H-[1,4]dioxino[2,3-h]isochromen-10-yl)methanamine]	10 to 30	+ (LOQ≤ + <5%)	+ (LOQ≤ + <5%)	++ (5%≤ ++ <25%)	++ (5%≤ ++ <25%)	++ (5%≤ ++ <25%)	+ (LOQ≤ + <5%)	++ (5%≤ ++ <25%)	+ (LOQ≤ + <5%)	+++ (25%≤ +++ <50%)	–
NC[C@@H]1OCCc2ccc3c(c21)OCO3 [Example 8, (R)-(6,9-dihydro-7H-[1,3]dioxolo[4,5-h]isochromen-9-yl)methanamine]	3 to 10	+ (LOQ≤ + <5%)	++ (5%≤ ++ <25%)	++ (5%≤ ++ <25%)	++ (5%≤ ++ <25%)	++ (5%≤ ++ <25%)	+ (LOQ≤ + <5%)	++ (5%≤ ++ <25%)	+ (LOQ≤ + <5%)	+++ (25%≤ +++ <50%)	–
CNC(C)C1OCCc2ccc3c(c21)OCO3 (stereo not drawn) [Example 57]	–	+ (LOQ≤ + <5%)	++ (5%≤ ++ <25%)	++ (5%≤ ++ <25%)	++ (5%≤ ++ <25%)	+ (LOQ≤ + <5%)	+ (LOQ≤ + <5%)	+ (LOQ≤ + <5%)	+ (LOQ≤ + <5%)	+++ (25%≤ +++ <50%)	D (>30 mpk)
